# Data reported in patent US20220098228A1, “METHODS AND COMPOSITIONS FOR IMPROVING THE IMMUNE SYSTEM AND PROVIDING IMMUNO-PROTECTION” (Natreon, Inc., priority 2020, published 2022).
# Marks after values point to notes of the source that are not given here.
# Columns and labels:
# [1] = test system: splenocytes; experiment: Cell viability of splenocytes, trypan blue exclusion, cyclophosphamide-induced immunosuppression (Example II); type: in vivo, Swiss albino mice; conditions: 10 mg/kg body weight p.o. 7 days + cyclophosphamide 250 mg/kg i.p.; Mean ± SD, n = 6
# Protocol: (§1) The mice were acclimatized for one week in the laboratory conditions, before being used in the experiment. All experiments were conducted between 10.00 hr and 14.00 hr. Principles of laboratory animal care (NIH publication no. 85-23, revised 1985) were followed.
# (§2) All test compounds (DBPs and DBP glycosides) were suspended in 0.3% of CMC (Carboxymethyl Cellulose) solutions of distilled water and were administered orally for 7 days by using an intubation canula. The volume of dose was 100 μl/10 g body weight. Cyclophosphamide was dissolved in distilled water and was injected (250 mg/kg, i.p.) on day one and volume of dose was 100 μl/10 g body weight. Control animals received equivalent volume of the vehicles CMC (0.3%) solutions only.
# Spleen was collected. Single cell suspension was prepared by mincing and tapping the spleen fragments on stainless steel 200-mesh in ice cold phosphate buffer saline (PBS: 0.15M NaCl pH 7.4). Cell suspension was centrifuged at 2000 rpm for 10 minutes. The pellet was re-suspended in PBS and cell viability was confirmed by trypan blue exclusion method.
# [2] = test system: splenocytes; experiment: Splenocyte viability, trypan blue exclusion (Example III); type: in vivo, Swiss albino mice; conditions: for % Viability Day7, splenocyte viability: Day 7
# Protocol: (§3) Male and female Swiss albino mice (n=8; 4 from each gender) weighing approximately 25±5 g, were obtained from National Research Institute of Ayurveda for Drug Development (Govt. of India), Kolkata, and were housed in polypropylene cages at 22±3° C., relative air humidity of 45 to 55%, with 12.00 h light & dark cycle (lighting on from 6:00 AM to 6:00 PM). […] The mice were acclimatized for one week in the laboratory conditions, before being used in the experiment. All experiments were conducted between 10.00 h and 14.00 h. Principles of laboratory animal care (NIH publication no. 85-23, revised 1985) was followed.
# (§4) Cyclophosphamide was dissolved in distilled water and the mice were administered a single exposure (250 mg/kg, i.p.) on day 1.
# (§5) 3-OH-DBP, 3,8-(OH)2-DBP, and combined 3-OH-DBP+3,8-(OH)2-DBP were administered once daily for 7 days starting from day 1. Following 7 days of treatment the mice were anaesthetized and sacrificed under anaesthesia followed by collection of peritoneal macrophages and spleen (for splenocyte isolation).
# (§6) Swiss albino mice were randomly divided into 8 Groups (n=8; 4 from each gender). […] (2:10) (12 mg/kg b.w., p.o.), Group VI mice were administered 3-OH-DBP (10 mg/kg b.w., p.o.), Group VII mice were administered 3,8-(OH)2-DBP (50 mg/kg b.w., p.o.), Group VIII mice were administered [3-OH-DBP+3,8-(OH)2-DBP] (10:50) (60 mg/kg b.w., p.o.).
# Spleens were collected and single cell suspension was prepared by mincing and tapping the spleen fragments on stainless steel 200-mesh in ice cold phosphate buffer saline (PBS: 0.15M NaCl; pH: 7.4). Cell suspensions were centrifuged at 2000 rpm for 10 minutes.
# (§7) Results were expressed in terms of mean±SEM (n=8; 4 from each gender). Data were subjected to one way ANOVA followed by Tukey's test using GraphPad Prism 4.0 software to establish statistical significance (*p<0.05, **p<0.01, ***p<0.001, where * refers to comparison with Group I vehicle control; #p<0.05, ##p<0.01, ###p<0.001, where #refers to comparison with Group II cyclophosphamide administration; ^ap<0.05, ^aap<0.01, ^aap<0.01, where a refers to comparison of Day 7 with Day 0).
# [3] = test system: peritoneal macrophages; experiment: NBT reduction assay in peritoneal macrophages, cyclophosphamide-induced immunosuppression (Example II); type: in vivo, Swiss albino mice
# Protocol: as §1, §2
# On day seven all the animals were sacrificed under ether anesthesia and peritoneal macrophages were lavaged using ice cold phosphate buffer saline (PBS: 0.15M NaCl pH-7.4). After centrifugation (3000 rpm×10 min) at 4° C. the pellet was re-suspended in PBS and cell viability was confirmed by trypan blue exclusion method. (Bala A, Haldar P K, Kar B, Naskar S and Mazumder U K, “Carbon tetrachloride: A hepatotoxin causes oxidative stress in murine peritoneal macrophage and peripheral blood lymphocyte cells” Immunopharmacol. and Immunotoxicol. 34(1): 157-162 (2012)).
# Preparation of NBT solution: 0.2% NBT (nitroblue tetrazolium) in PB (Phosphate Buffer, pH 7.4), 5% dextrose and HBSS (Hank's balanced salt solution). The three solutions were mixed in 6:2:4 ratios. (Saxena A K, Singh K P, Srivastava S N, Shukla L J and Shanker R., “Immunomodulating effects of caffeine in rodents” Ind J Exptl Biol. 22: 298-301 (1984)).
# Method: 0.5 ml of NBT solution was added to 0.5 ml of peritoneal macrophages (1×10^6 cells/ml) in a micro-centrifuge tube. This mixture was incubated at 37° C. for 45 minutes. The cell suspension was centrifuged at 1500 rpm for 10 minutes. Supernatant was discarded and pellet was re-suspended in 2 ml of DMSO. The tubes were kept in a boiling water bath for 10 minutes. The tubes were again centrifuged at 1500 rpm for 10 minutes. The supernatant was collected, and absorbance was measured at 515 nm.
# [4] = test system: peritoneal macrophages; experiment: NBT reduction of peritoneal macrophages (Example III); type: in vivo, Swiss albino mice; conditions: for NBT reduction compared with vehicle control: cyclophosphamide, 3-OH-DBP 2 and 10 mg/kg, combined 12 mg/kg
# Protocol: as §3, §4, §5, §6
# (§8) All the animals were sacrificed under ether anesthesia and peritoneal macrophages were lavaged using ice cold phosphate buffer saline (PBS: 0.15 M NaCl; pH: 7.4). After centrifugation (3000 rpm×10 min) at 4° C., pellets were re-suspended in PBS and cell viability was confirmed by trypan blue exclusion assay.
# Preparation of NBT solution: 0.2% NBT (nitroblue tetrazolium) in PBS (pH 7.4), 5% dextrose and HBSS. These three solutions were mixed in 6:2:4 ratios.
# 0.5 ml of NBT solution was added to 0.5 ml of peritoneal macrophages (1×10^6 cells/ml) in micro-centrifuge tube. This mixture was incubated at 37° C. for 2 hours. The cell suspension was centrifuged at 2000 rpm for 10 minutes. Supernatants were discarded and pellets were re-suspended in 1 ml of DMSO. The tubes were kept in boiling water bath for 10 minutes and then cooled and centrifuged at 2000 rpm for 10 minutes. The supernatants were collected and absorbance was measured at 515 nm.
# as §7
# [5] = test system: peritoneal macrophages; experiment: Peritoneal macrophage viability, trypan blue exclusion (Example III); type: in vivo, Swiss albino mice
# Protocol: as §3, §4, §5, §6, §8, §7
# [6] = mouse, in vivo
# Protocol: as §3, §4, §5, §6, §7
# [7] = female mice, 3-OH-DBP 2 and 10 mg/kg, 3,8-(OH)2-DBP 10 and 50 mg/kg, combined 12 and 60 mg/kg
# [8] = female mice, 2 mg/kg p.o. + cyclophosphamide 250 mg/kg i.p.
# [9] = female mice, 10 mg/kg p.o. + cyclophosphamide 250 mg/kg i.p.
# [10] = male mice, 3-OH-DBP 10 mg/kg, 3,8-(OH)2-DBP 50 mg/kg, combined 60 mg/kg
# [11] = male mice, 2 mg/kg p.o. + cyclophosphamide 250 mg/kg i.p.
# [12] = male mice, 10 mg/kg p.o. + cyclophosphamide 250 mg/kg i.p.
smiles,measurement,setting,value
"O=c1oc2cc(O)ccc2c2ccccc12 [3-OH-DBP, 3-hydroxy-dibenzo-alpha-pyrone]",% Cell Viability of splenocytes,[1],59.70 ± 3.59%
same,splenocyte viability compared with cyclophosphamide treated mice,[2]; [7],"significantly (p<0.05, p<0.01, p<0.001) increased"
same,"% Viability Day7, splenocyte viability",[2]; [8],88.40 ± 1.61# %
same,"% Viability Day7, splenocyte viability",[2]; [9],90.77 ± 1.77## %
same,splenocyte viability compared with cyclophosphamide treated mice,[2]; [10],significantly higher
same,"% Viability Day7, splenocyte viability",[2]; [11],69.34 ± 1.84*** %
same,"% Viability Day7, splenocyte viability",[2]; [12],80.9 ± 1.24## %
same,splenocyte viability compared with vehicle control,"[2]; male mice, cyclophosphamide, 2 mg/kg 3-OH-DBP, 10 mg/kg 3,8-(OH)2-DBP, 12 mg/kg combined",similarly decreased
same,"OD (515 nm), NBT reduction assay in peritoneal macrophages","[3]; 10 mg/kg body weight p.o. 7 days + cyclophosphamide 250 mg/kg i.p., Mean ± SD, n = 6",0.154 ± 0.019
same,improvement in NBT reduction capacity,"[3]; 10 mg/kg body weight p.o., in comparison with cyclophosphamide treated mice",moderate (p<0.05) improvement
same,NBT reduction compared with cyclophosphamide treated mice,"[4]; female mice, 3-OH-DBP 10 mg/kg, 3,8-(OH)2-DBP 50 mg/kg, combined 12 and 60 mg/kg","significantly (p<0.05, p<0.01, p<0.001) increased"
same,"O.D. (515 nm) Day 7, NBT reduction of peritoneal macrophages",[4]; [8],0.142 ± 0.005***
same,"O.D. (515 nm) Day 7, NBT reduction of peritoneal macrophages",[4]; [9],"0.207 ± 0.02**,##"
same,NBT reduction compared with vehicle control,"[4]; female mice, 3,8-(OH)2-DBP 10 and 50 mg/kg","significantly (p<0.05, p<0.01, p<0.001) decreased"
same,"O.D (515 nm) Day 7, NBT reduction of peritoneal macrophages",[4]; [11],0.257 ± 0.02338***
same,"O.D (515 nm) Day 7, NBT reduction of peritoneal macrophages",[4]; [12],0.232 ± 0.04097***
same,NBT reduction compared with vehicle control,"[4]; male mice, 3,8-(OH)2-DBP 10 mg/kg","significantly (p<0.01, p<0.001) decreased"
same,peritoneal macrophage viability compared with cyclophosphamide treated mice,[5]; [7],"significantly (p<0.05, p<0.01) increased"
same,"% Viability Day 7, peritoneal macrophage viability",[5]; [8],62.53 ± 2.14** %
same,"% Viability Day 7, peritoneal macrophage viability",[5]; [9],72.56 ± 2.01^# %
same,peritoneal macrophage viability compared with cyclophosphamide treated mice,[5]; [10],"significantly (p<0.05, p<0.01) increased"
same,"% Viability Day 7, peritoneal macrophage viability",[5]; [11],59.90 ± 0.51* %
same,"% Viability Day 7, peritoneal macrophage viability",[5]; [12],69.64 ± 2.77# %
same,peritoneal macrophage viability compared with vehicle control,"[5]; male mice, cyclophosphamide, 3-OH-DBP 2 mg/kg, 3,8-(OH)2-DBP 10 mg/kg",significantly (p<0.05) decreased
same,feed intake Day 7 in comparison to Day 0,[6],"significantly (p<0.05, p<0.01) decreased"
same,feed intake compared to vehicle control,[6],"significantly (p<0.05, p<0.01) decreased"
same,water intake compared with cyclophosphamide treated mice,[6],significantly (p<0.001) decreased
same,water intake compared with vehicle control,[6],significantly (p<0.001) decreased
same,water intake compared with vehicle control and cyclophosphamide treated mice,[6],"significantly (p<0.05, p<0.001) decreased"
